Source: patent US20260125400A1, “TYK2 DEGRADERS AND USES THEREOF” (Kymera Therapeutics, Inc., priority 2023, published 2026)

Target: T1, TYK2 (Homo sapiens, UniProt P29597)
T1 construct: Degradation of TYK2 in cells was quantitatively measured using Meso Scale Discovery (MSD) technology; endogenous in cells; host or cells: OCI-LY10
Test: TYK2 MSD degradation in OCI-LY10 cells
Assay type: cell-based
Settings: OCI-LY10 cells, 4 to 24 hours incubation; for DC50: read-out: TYK2 MSD OCI-LY10 Rel-DC50
How it was run: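 Cellular TYK2 levels were measured by Meso Scale Discovery sandwich detection in RIPA lysates of OCI-LY10 cells exposed 4 to 24 hours at 37° C to nine 1:3 compound doses starting at 1 to 10 μM final; dose-response fitted by four-parameter regression.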

T1 sequence (P29597 whole entry): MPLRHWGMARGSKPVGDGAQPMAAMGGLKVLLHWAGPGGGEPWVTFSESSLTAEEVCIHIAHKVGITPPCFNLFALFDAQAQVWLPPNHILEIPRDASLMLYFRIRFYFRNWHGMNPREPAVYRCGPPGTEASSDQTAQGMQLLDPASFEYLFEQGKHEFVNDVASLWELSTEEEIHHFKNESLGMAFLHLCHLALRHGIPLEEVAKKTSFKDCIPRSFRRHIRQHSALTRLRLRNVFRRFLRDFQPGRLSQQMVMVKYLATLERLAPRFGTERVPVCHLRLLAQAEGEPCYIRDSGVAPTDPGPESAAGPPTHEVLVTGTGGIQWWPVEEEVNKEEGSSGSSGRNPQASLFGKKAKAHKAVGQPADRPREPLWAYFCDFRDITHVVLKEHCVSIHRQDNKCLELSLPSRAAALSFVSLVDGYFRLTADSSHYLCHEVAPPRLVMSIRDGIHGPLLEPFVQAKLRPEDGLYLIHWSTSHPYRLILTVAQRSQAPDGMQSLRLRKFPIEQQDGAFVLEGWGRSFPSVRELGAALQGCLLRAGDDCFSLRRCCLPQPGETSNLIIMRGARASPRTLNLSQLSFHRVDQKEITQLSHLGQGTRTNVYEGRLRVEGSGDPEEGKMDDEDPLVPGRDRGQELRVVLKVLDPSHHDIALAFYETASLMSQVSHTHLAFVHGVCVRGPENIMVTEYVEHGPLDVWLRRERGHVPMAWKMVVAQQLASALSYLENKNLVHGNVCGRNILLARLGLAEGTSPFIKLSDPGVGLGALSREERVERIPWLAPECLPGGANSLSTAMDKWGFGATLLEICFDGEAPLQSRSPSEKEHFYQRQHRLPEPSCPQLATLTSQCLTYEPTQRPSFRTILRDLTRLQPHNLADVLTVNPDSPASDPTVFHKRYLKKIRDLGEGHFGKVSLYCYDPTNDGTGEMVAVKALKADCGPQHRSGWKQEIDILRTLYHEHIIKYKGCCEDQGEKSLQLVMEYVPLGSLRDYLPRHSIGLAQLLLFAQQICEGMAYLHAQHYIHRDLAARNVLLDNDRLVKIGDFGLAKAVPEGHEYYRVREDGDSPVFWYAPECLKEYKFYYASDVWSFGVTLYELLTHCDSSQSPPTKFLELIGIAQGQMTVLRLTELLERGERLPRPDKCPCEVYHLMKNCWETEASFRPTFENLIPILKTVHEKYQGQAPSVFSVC

Row | SMILES | TYK2 MSD OCI-LY10 Dmax % | DC50
1 | CNc1cc(N2CCc3c(-c4ccc(CN5CCC6(CCN(C(=O)c7cc(F)c(Cl)c(N8CCC(=O)NC8=O)c7)CC6)C(F)(F)C5)cn4)cc(F)cc32)nn2c(C(=O)N[C@@H]3CC[C@H]3OC)cnc12 [I-744] | B (B (90 to >75%)) | < 0.01 µM
2 | CNc1cc(-c2cn(C3CN(C4CCN(C(=O)c5ccc(Cl)c(N6CCC(=O)NC6=O)c5)CC4)C3)c3ccccc23)nn2c(C(=O)N[C@@H]3C[C@@H]3F)cnc12 [I-745] | D (D (<50%)) | > 0.1 µM
3 | CNc1cc(N2CCc3c(-c4ncc(CN5CCC6(CCN(C(=O)c7cc(C)c(Cl)c(N8CCC(=O)NC8=O)c7)CC6)C(F)(F)C5)cc4Cl)cccc32)nn2c(C(=O)N[C@@H]3C[C@@H]3F)cnc12 [I-746] | B (B (90 to >75%)) | < 0.01 µM
4 | CNc1cc(N2CCc3c(-c4ncc(CN5CC6(CCN(C(=O)c7cc(C)c(Cl)c(N8CCC(=O)NC8=O)c7)CC6(F)F)C5)cc4Cl)cccc32)nn2c(C(=O)N[C@@H]3C[C@@H]3F)cnc12 [I-747] | B (B (90 to >75%)) | < 0.01 µM
5 | CNc1cc(N2CCc3c(CN4CCC(N5CCC6(CCN(C(=O)c7cc(C)c(OC)c(N8CCC(=O)NC8=O)c7)CC6)CC5)C(F)(F)C4)cccc32)nn2c(C(=O)N[C@@H]3C[C@@H]3F)cnc12 (some centres unmarked) [I-749] | B (B (90 to >75%)) | < 0.01 µM
6 | CNc1cc(N2CCc3c2ccc(F)c3CN2CCC(N3CCC4(CCN(C(=O)c5ccc(Cl)c(N6CCC(=O)NC6=O)c5)CC4)CC3)C(F)(F)C2)nn2c(C(=O)N[C@@H]3C[C@@H]3F)cnc12 (some centres unmarked) [I-750] | A (A (>90%)) | < 0.001 µM
7 | CNc1cc(N2CCc3c(CN4CCC(CN5CCC(N(C)c6ccc(Cl)c(N7CCC(=O)NC7=O)c6)CC5)C(F)(F)C4)cccc32)nn2c(C(=O)N[C@@H]3C[C@@H]3F)cnc12 (some centres unmarked) [I-751] | B (B (90 to >75%)) | < 0.01 µM
8 | CNc1cc(N2CCc3c(-c4ccc(CN5CC6(CCC(N(C)c7ccc(Cl)c(N8CCC(=O)NC8=O)c7)CC6)C5)cn4)cccc32)nn2c(C(=O)N[C@@H]3CC[C@H]3OC)cnc12 [I-752] | B (B (90 to >75%)) | < 0.01 µM
9 | CNc1cc(N2CCc3c(CN4CCC(N5CC(CC6CCN(C(=O)c7ccc(Cl)c(N8CCC(=O)NC8=O)c7)CC6)C5)C(F)(F)C4)cccc32)nn2c(C(=O)N[C@@H]3C[C@@H]3F)cnc12 (some centres unmarked) [I-753] | A (A (>90%)) | < 0.001 µM
10 | CNc1cc(N2CCc3c(-c4ccc(CN5CC6(CCN(C(=O)c7cc(Cl)c(C)c(N8CCC(=O)NC8=O)c7)CC6(F)F)C5)cn4)cccc32)nn2c(C(=O)N[C@@H]3CC[C@H]3OC)cnc12 [I-754] | A (A (>90%)) | < 0.001 µM
11 | CNc1cc(N2CCc3c2ccc(C)c3CN2CCC(N3CCC4(CCN(C(=O)c5ccc(Cl)c(N6CCC(=O)NC6=O)c5)CC4)CC3)C(F)(F)C2)nn2c(C(=O)N[C@@H]3C[C@@H]3F)cnc12 (some centres unmarked) [I-755] | C (C (75 to 50%)) | 0.01 to 0.1 µM
12 | CNc1cc(N2CCc3c(-c4ncc(CN5CC6(CCN(C(=O)c7cc(C)c(Cl)c(N8CCC(=O)NC8=O)c7)CC6(F)F)C5)cc4C)cccc32)nn2c(C(=O)N[C@@H]3C[C@@H]3F)cnc12 [I-756] | B (B (90 to >75%)) | < 0.01 µM
13 | CNc1cc(N2CCc3c(-c4ccc(CN5CCC6(CCN(C(=O)c7cc(C)c(OC)c(N8CCC(=O)NC8=O)c7)CC6)C(F)(F)C5)cn4)cccc32)nn2c(C(=O)N[C@@H]3C[C@@H]3F)cnc12 [I-757] | B (B (90 to >75%)) | < 0.01 µM
14 | CNc1cc(N2CCc3c(CN4CCC(N5CCC(N(C)c6ccc(Cl)c(N7CCC(=O)NC7=O)c6)CC5)C(F)(F)C4)cccc32)nn2c(C(=O)N[C@@H]3C[C@@H]3F)cnc12 (some centres unmarked) [I-758] | B (B (90 to >75%)) | < 0.01 µM
15 | CNc1cc(N2CCc3c(-c4cnc(CC5CC6(CCN(C(=O)c7cc(C)c(Cl)c(N8CCC(=O)NC8=O)c7)CC6)C5)cn4)cccc32)nn2c(C(=O)N[C@@H]3C[C@@H]3F)cnc12 [I-760] | B (B (90 to >75%)) | < 0.01 µM
16 | CNc1cc(N2CCc3c(CN4CCC(CN5CCN(C(=O)c6ccc(Cl)c(N7CCC(=O)NC7=O)c6)CC5)C(F)(F)C4)cccc32)nn2c(C(=O)N[C@@H]3C[C@@H]3F)cnc12 (some centres unmarked) [I-761] | B (B (90 to >75%)) | < 0.01 µM
17 | CNc1cc(N2CCc3c(-c4ncc(CN5CCC6(CCN(C(=O)c7cc(C)c(Cl)c(N8CCC(=O)NC8=O)c7)CC6)C(F)(F)C5)cc4C)cccc32)nn2c(C(=O)N[C@@H]3C[C@@H]3F)cnc12 [I-763] | B (B (90 to >75%)) | < 0.01 µM
18 | CNc1cc(N2CCc3c(CN4CCC(N5CCC6(CCN(C(=O)c7cc(Cl)c(OC)c(N8CCC(=O)NC8=O)c7)CC6)CC5)C(F)(F)C4)cccc32)nn2c(C(=O)N[C@@H]3C[C@@H]3F)cnc12 (some centres unmarked) [I-764] | B (B (90 to >75%)) | < 0.01 µM
19 | CNc1cc(N2CCc3c(CN4CCC(N5CCC6(CCN(C(=O)c7cc(N8CCC(=O)NC8=O)c(Cl)cc7C)CC6)CC5)C(F)(F)C4)cccc32)nn2c(C(=O)N[C@@H]3C[C@@H]3F)cnc12 (some centres unmarked) [I-765] | B (B (90 to >75%)) | < 0.01 µM

Row | SMILES | TYK2 MSD OCI-LY10 Dmax % | DC50
20 | CNc1cc(N2CCc3c(CN4CCC(CN5CCC6(CC5)CCN(C(=O)c5ccc(Cl)c(N7CCC(=O)NC7=O)c5)CC6)C(F)(F)C4)cccc32)nn2c(C(=O)N[C@@H]3C[C@@H]3F)cnc12 (some centres unmarked) [I-766] | A (A (>90%)) | < 0.001 µM
21 | CNc1cc(-c2cn(C3CCN(C4CCN(C(=O)c5ccc(Cl)c(N6CCC(=O)NC6=O)c5)CC4)CC3)c3ccccc23)nn2c(C(=O)N[C@@H]3C[C@@H]3F)cnc12 [I-767] | D (D (<50%)) | > 0.1 µM
22 | CNc1cc(-c2cn(CC3CCN(C4CCN(C(=O)c5ccc(Cl)c(N6CCC(=O)NC6=O)c5)CC4)CC3)c3ccccc23)nn2c(C(=O)N[C@@H]3C[C@@H]3F)cnc12 [I-768] | D (D (<50%)) | > 0.1 µM
23 | CNc1cc(N2CCc3c(CN4CCC(N5CCC6(CCN(C(=O)c7cc(F)c(OC)c(N8CCC(=O)NC8=O)c7)CC6)CC5)C(F)(F)C4)cccc32)nn2c(C(=O)N[C@@H]3C[C@@H]3F)cnc12 (some centres unmarked) [I-769] | B (B (90 to >75%)) | < 0.01 µM
24 | CNc1cc(N2CCc3c(CN4CCC(CN5CCC(N6CCN(C(=O)c7ccc(Cl)c(N8CCC(=O)NC8=O)c7)CC6)CC5)C(F)(F)C4)cccc32)nn2c(C(=O)N[C@@H]3C[C@@H]3F)cnc12 (some centres unmarked) [I-770] | B (B (90 to >75%)) | < 0.01 µM
25 | CNc1cc(-c2cn(CC3CCN(CCC4CCN(C(=O)c5ccc(Cl)c(N6CCC(=O)NC6=O)c5)CC4)CC3)c3ccccc23)nn2c(C(=O)N[C@@H]3C[C@@H]3F)cnc12 [I-771] | B (B (90 to >75%)) | < 0.01 µM
26 | CNc1cc(-c2cn(CC3CCN(CC4CCN(C(=O)c5ccc(Cl)c(N6CCC(=O)NC6=O)c5)CC4)CC3)c3ccccc23)nn2c(C(=O)N[C@@H]3C[C@@H]3F)cnc12 [I-773] | D (D (<50%)) | > 0.1 µM
27 | CNc1cc(N2CCc3c(CN4CCC(N5CCC6(CCN(C(=O)c7cc(C)c(Cl)c(N8CCC(=O)NC8=O)c7)CC6)CC5)C(F)(F)C4)cccc32)nc2c(C(=O)N[C@@H]3C[C@@H]3F)cnn12 (some centres unmarked) [I-775] | A (A (>90%)) | < 0.001 µM
28 | CNc1cc(N2CCc3c(-c4ccc(CN5CCC6(CCN(C(=O)c7cc(F)c(OC)c(N8CCC(=O)NC8=O)c7)CC6)C(F)(F)C5)cn4)cccc32)nn2c(C(=O)N[C@@H]3C[C@@H]3F)cnc12 [I-776] | B (B (90 to >75%)) | < 0.01 µM
29 | CNc1cc(-c2cn(C3CCN(CCC4CCN(C(=O)c5ccc(Cl)c(N6CCC(=O)NC6=O)c5)CC4)CC3)c3ccccc23)nn2c(C(=O)N[C@@H]3C[C@@H]3F)cnc12 [I-779] | D (D (<50%)) | > 0.1 µM
30 | CNc1cc(N2CCc3c(CN4CCC(N5CCC(C6CCN(C(=O)c7ccc(Cl)c(N8CCC(=O)NC8=O)c7)CC6)CC5)C(F)(F)C4)cccc32)nn2c(C(=O)N[C@@H]3C[C@@H]3F)cnc12 (some centres unmarked) [I-780] | A (A (>90%)) | < 0.001 µM
31 | CNc1cc(N2CCc3c(N4CC(CN5CCC(N6CCN(C(=O)c7ccc(Cl)c(N8CCC(=O)NC8=O)c7)CC6)C(F)(F)C5)C4)cccc32)nn2c(C(=O)N[C@@H]3C[C@@H]3F)cnc12 (some centres unmarked) [I-781] | D (D (<50%)) | > 0.1 µM
32 | CNc1cc(N2CCc3c(-c4ccc(CN5CC6(CCN(C(=O)c7cc(N8CCC(=O)NC8=O)c(C)cn7)CC6)C5)cn4)cccc32)nn2c(C(=O)N[C@@H]3C[C@@H]3F)cnc12 [I-782] | A (A (>90%)) | < 0.001 µM
33 | CNc1cc(N2CCc3c(N4CC(CN5CCC6(CCN(C(=O)c7ccc(Cl)c(N8CCC(=O)NC8=O)c7)CC6)C(F)(F)C5)C4)cccc32)nn2c(C(=O)N[C@@H]3C[C@@H]3F)cnc12 [I-783] | B (B (90 to >75%)) | < 0.01 µM
34 | CNc1cc(N2CCc3c(-c4ccc(CN5CCC(N6CCC(N(C)c7ccc(Cl)c(N8CCC(=O)NC8=O)c7)CC6)C(F)(F)C5)cn4)cccc32)nn2c(C(=O)N[C@@H]3C[C@@H]3F)cnc12 (some centres unmarked) [I-784] | C (C (75 to 50%)) | 0.01 to 0.1 µM
35 | CNc1cc(N2CCc3c(N4CC(CN5CCC(N6CCC7(CCN(C(=O)c8ccc(Cl)c(N9CCC(=O)NC9=O)c8)CC7)CC6)C(F)(F)C5)C4)cccc32)nn2c(C(=O)N[C@@H]3C[C@@H]3F)cnc12 (some centres unmarked) [I-785] | B (B (90 to >75%)) | < 0.01 µM
36 | CNc1cc(N2CCc3c(N4CC(CN5CCN(C6CCN(C(=O)c7ccc(Cl)c(N8CCC(=O)NC8=O)c7)CC6)CC5)C4)cccc32)nn2c(C(=O)N[C@@H]3C[C@@H]3F)cnc12 [I-787] | D (D (<50%)) | > 0.1 µM
37 | CNc1cc(-c2cn(C3CCN(CC4CCN(C(=O)c5ccc(Cl)c(N6CCC(=O)NC6=O)c5)CC4)CC3)c3ccccc23)nn2c(C(=O)N[C@@H]3C[C@@H]3F)cnc12 [I-789] | D (D (<50%)) | > 0.1 µM
